From the NIST ThermoML archive (doi:10.1016/j.fluid.2013.12.002) come the findings set out here.

The vapor or sublimation pressure is the equilibrium pressure above the liquid or solid.

Numbers after ± are expanded uncertainties.

For this data set the following is noted: Liquid, Ebulliometric method (Recirculating still).

Consider `O=Cc1ccccc1` [benzaldehyde], for which the “vapor or sublimation pressure” value is, setting by setting: (377.63 K) 10 ± 0.15 kPa; (396.65 K) 20 ± 0.31 kPa; (408.67 K) 30 ± 0.45 kPa.

With `Cc1ccccc1` [toluene], the “vapor or sublimation pressure” value (383.81 K) was 101.33 ± 1.4 kPa.

With `c1ccccc1` [benzene], the “vapor or sublimation pressure” value (353.26 K) is 101.33 ± 1.4 kPa.

With `O=CC=Cc1ccccc1` [(E)-3-phenyl-2-propanal], the “vapor or sublimation pressure” value amounted to 10 ± 0.15 kPa (442.84 K), 20 ± 0.33 kPa (463.15 K) and 30 ± 0.49 kPa (475.83 K).
